# Laboratory results from PubChem BioAssay (NCI).
#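 Where inhibition never reached the appropriate level, the endpoint shown equals the highest concentration tested. Otherwise, values were interpolated linearly from a five-concentration, 48-hour dose response in 96-well plates. GI50 is the concentration that inhibits growth by half. TGI: concentration producing complete growth inhibition.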
# Experiments:
# Assay in all cases: DTP human tumour cell line panel, 48 h
# TK-10 renal = tested on: TK-10 renal
# A498 renal = tested on: A498 renal
# NCI-H460 lung = tested on: NCI-H460 lung
# NCI-H522 lung = tested on: NCI-H522 lung
# M14 melanoma = tested on: M14 melanoma
# RPMI-8226 leukemia = tested on: RPMI-8226 leukemia
# SR leukemia = tested on: SR leukemia
# SF-268 CNS = tested on: SF-268 CNS
# HCT-116 colon = tested on: HCT-116 colon
# K-562 leukemia = tested on: K-562 leukemia
Compound,TGI (TK-10 renal),TGI (A498 renal),TGI (NCI-H460 lung),TGI (NCI-H522 lung),TGI (M14 melanoma),TGI (RPMI-8226 leukemia),TGI (SR leukemia),TGI (SF-268 CNS),TGI (HCT-116 colon),TGI (K-562 leukemia),GI50 (TK-10 renal),GI50 (A498 renal),GI50 (NCI-H460 lung),GI50 (NCI-H522 lung),GI50 (M14 melanoma),GI50 (RPMI-8226 leukemia),GI50 (SR leukemia),GI50 (SF-268 CNS),GI50 (HCT-116 colon),GI50 (K-562 leukemia)
O=c1oc2ccccc2c(O)c1/C=N\c1nc(-c2ccccc2)cs1,7.58 µM,> 100 µM,> 100 µM,5.71 µM,16.2 µM,39.5 µM,5.31 µM,31.1 µM,22 µM,> 100 µM,,,,,,,,,,
COc1cc(-c2cnn(C)c2)ccc1Nc1ncc2ccnc(N[C@@H](C)C(C)(C)C)c2n1,> 100 µM,> 100 µM,> 100 µM,> 100 µM,> 100 µM,> 100 µM,> 100 µM,> 100 µM,> 100 µM,> 100 µM,> 79.9 µM,> 100 µM,0.819 µM,> 100 µM,> 63.8 µM,> 100 µM,0.695 µM,> 41.5 µM,0.467 µM,> 72.8 µM
CCCCNc1nc(NC(C)(C)C)nc(NC(C)(C)C)n1,> 100 µM,50.4 µM,> 100 µM,> 100 µM,> 100 µM,> 100 µM,12.9 µM,> 100 µM,29.6 µM,> 100 µM,52.6 µM,2.98 µM,5.13 µM,6.32 µM,15.7 µM,1.4 µM,2.8 µM,48.4 µM,2.44 µM,6.46 µM
CC#CC(O)(C(=O)OC1CCCN(C)C1)C1=CC=CCC1 (centres undefined),> 100 µM,> 100 µM,> 100 µM,> 100 µM,> 100 µM,> 100 µM,> 100 µM,> 100 µM,> 100 µM,> 100 µM,,,,,,,,,,
O=[N+]([O-])c1ccc2[nH]cc(-c3c4ccsc4cc4[nH]c5ccc([N+](=O)[O-])cc5c34)c2c1,18.5 µM,3.13 µM,4.13 µM,3.42 µM,1.39 µM,5.1 µM,33.3 µM,18.5 µM,5.37 µM,12.3 µM,2.85 µM,0.726 µM,0.922 µM,0.423 µM,0.527 µM,1.04 µM,0.419 µM,1.39 µM,0.865 µM,0.664 µM
CN1CCN(Cc2ccc(NC(=O)c3cncc(C#Cc4cnc(N)c5ccc(F)cc45)c3)cc2C(F)(F)F)CC1,6.68 µM,3.92 µM,8.95 µM,6.53 µM,4.4 µM,26.2 µM,33.3 µM,8.92 µM,5.04 µM,0.683 µM,2.44 µM,0.902 µM,1.08 µM,1.86 µM,0.974 µM,1.27 µM,1.25 µM,1.79 µM,1 µM,0.0128 µM
O=c1ccn(C2OC(CO)C(O)C2O)c(=O)[nH]1 (centres undefined),> 1000 µM,> 1000 µM,> 1000 µM,> 1000 µM,> 1000 µM,> 1000 µM,> 1000 µM,> 1000 µM,> 1000 µM,> 1000 µM,> 1000 µM,,> 1000 µM,,,> 1000 µM,> 1000 µM,> 1000 µM,> 1000 µM,> 1000 µM
CN(C)CCNc1nc2ccccc2c2c1c1c(n2Cc2ccccc2)-c2ccccc2C1=O,,28.9 µM,26.7 µM,35.3 µM,40.7 µM,17.7 µM,20.9 µM,28.6 µM,25.2 µM,21.2 µM,,14.1 µM,10.5 µM,11 µM,18.6 µM,2.78 µM,2.85 µM,12.2 µM,4.67 µM,3.89 µM
Cc1cc(/C=C2\SC(=Nc3ccccc3)N(C3CCCC3)C2=O)c(C)n1-c1ccc(Cl)cc1,> 100 µM,> 100 µM,> 100 µM,> 100 µM,,> 100 µM,> 100 µM,> 100 µM,> 100 µM,> 100 µM,> 100 µM,0.295 µM,> 100 µM,> 100 µM,,> 100 µM,> 100 µM,> 100 µM,> 100 µM,> 100 µM
NC(N)=N/N=C(/c1nc2ccc([N+](=O)[O-])cc2[nH]c1=O)C(O)c1ccco1 (centres undefined),> 100 µM,> 100 µM,> 100 µM,> 100 µM,> 100 µM,> 100 µM,> 100 µM,> 100 µM,> 100 µM,> 100 µM,,,,,,,,,,
Cc1cc(S(=O)(=O)Nc2nc(N)nc(N3N=CCC3C)n2)c(S)cc1Cl (centres undefined),> 10 µM,> 10 µM,> 10 µM,> 10 µM,> 10 µM,> 10 µM,> 10 µM,> 10 µM,> 10 µM,> 10 µM,,,,,,,,,,
Nc1c(C(=O)c2ccccc2)sc2nc(-c3cccs3)ccc12,5.79 µM,3.91 µM,2.56 µM,0.0567 µM,13.3 µM,17.6 µM,4.16 µM,15.5 µM,1.96 µM,20.5 µM,0.414 µM,0.185 µM,0.283 µM,0.0178 µM,0.0924 µM,0.513 µM,0.0668 µM,0.664 µM,0.0533 µM,0.0467 µM
COc1cc([C@H](C)c2ccc3ccccc3c2)cc(OC)c1OC,> 100 µM,7.34 µM,18 µM,28.3 µM,> 100 µM,10.9 µM,> 100 µM,> 100 µM,,> 100 µM,12.2 µM,0.255 µM,0.332 µM,0.376 µM,0.197 µM,0.325 µM,0.0528 µM,1.67 µM,,0.0411 µM
c1ccc2c(c1)[I+]c1ccccc1-2,> 50 µM,> 50 µM,> 50 µM,> 50 µM,,> 50 µM,> 50 µM,> 50 µM,> 50 µM,> 50 µM,> 50 µM,27.7 µM,33.9 µM,> 50 µM,,31.7 µM,19.4 µM,> 50 µM,38.4 µM,28.2 µM
